The record followed here is patent US10851067B2, “Kv7 channel activators compositions and methods of use” (Knopp Biosciences LLC, priority 2018, dated 2020).

In test [1] the target is T1, Kv7.2/7.3 (Homo sapiens, UniProt O43525+O43526). Nature of the test: Kv7.2/7.3 Thallium Flux Assay. The format is cell-based. More on the design: host or cells: HEK cells, tetracycline-inducible expression. To be noted: read-out: Kv7.2/7.3 Activity: EC50 of Kv7.2/Kv7.3 activation. From the text: The Thallium Flux Assay is used as a surrogate indicator of potassium channel activity.
The experimental protocol was adapted from the FluxOR™ II Green Potassium Ion Channel Assay User Guide (Pub. No. MAN0016084, Invitrogen). Conditions were optimized for the Kv7.2/7.3 cell line.
The hKV7.2/7.3 cell line was obtained from Chantest (Cleveland, Ohio 44128) cat. #CT6147.
Kv7.2/7.3 cells were maintained in a media containing DMEM/F12; 50/50 (GIBCO cat. #11330), 10% Fetal Bovine Serum (FBS) (GIBCO cat. #26140), 100 units/mL Penicillin-Streptomycin (GIBCO cat. #15140), 0.005 mg/ml Blasticidin (SIGMA 15205), 0.5 mg/mL Geneticin (GIBCO cat. #10131), and 0.1 mg/mL Zeocin (GIBCO cat. #R25001). One day prior to experimentation, cells were plated in 96 well clear bottom plates (Corning cat. #353219) in a media without Blasticidin, Geneticin, or Zeocin. Channel expression was induced by adding tetracycline (Bioline cat. #BIO87030) at a final concentration of 10 ng/mL.
The test compound is diluted in a mixture of 0.1% DMSO/extracellular solution with an eight-point concentration range from 0.014 μM to 30 μM. Serial dilutions were made on a Biomek NXP (BECKMAN COULTER).
Measurement and Data Analysis:
A plate reader (Enspire, Perkin Elmer) is used to characterize the ion-channel modulating properties of novel compounds using an excitation wavelength of 475 nm and an emission wavelength of 530 nm. After a 15 sec baseline measurement, the stimulus buffer containing thallium and potassium is injected. A final endpoint measure is taken after 90 sec. Responses are normalized to positive control (retigabine, 30 µM max). Mean normalized responses at each concentration tested are fit to the standard Hill equation to generate an EC50 and maximal response.

The target of test [2] is T1, Kv7.2/7.3. Put plainly: Kv7.2/7.3 Activation Assay, QPatch single concentration screen. The note with it: Kv7.2/Kv7.3 co-expressing HEK cells, compound concentration 3 μM, steady-state current at end of 2 s pulse to −30 mV. In kind it is cell-based. Set-up: host or cells: HEK cells, tetracycline-inducible expression; key: 1.2-2.9 (+); 3-3.9 (++); >4 (+++) fold increase over baseline; O represents open channel at holding potential. The method in brief:
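Tetracycline-induced HEK cells expressing human Kv7.2/7.3, recorded 24 h post-induction by automated planar patch clamp. From −80 mV, 2 s steps to −30 mV then 100 ms to −120 mV; compound tested at 3 μM (0.1% DMSO). Steady-state current at end of −30 mV step gives fold increase over baseline.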
For orientation: The patch-clamp technique gives a direct electrical read-out from membranes.

For the compound `CC(C)(C)n1c(NC(=O)CC2CC(F)(F)C2(F)F)nc2cc(F)c(F)cc21` (single isomer, unassigned) [Example 558, N-(1-(tert-butyl)-5,6-difluoro-1H-benzo[d]imidazol-2-yl)-2-(2,2,3,3-tetrafluorocyclobutyl)acetamide], the EC50 at Kv7.2/7.3 [1] is 1 to 3 µM. Consider `CC1(n2c(NC(=O)CC3CC(F)(F)C3(F)F)nc3c(F)ccc(C#N)c32)CCC1` (single isomer, unassigned) [Example 548, N-(7-cyano-4-fluoro-1-(1-methylcyclobutyl)-1H-benzo[d]imidazol-2-yl)-2-(2,2,3,3-tetrafluorocyclobutyl)acetamide], for which, on Kv7.2/7.3 [1], the EC50 is below 1 µM. As to `CC(C)(CC(=O)Nc1nc2c(F)cc(C3(O)CCC3)cc2n1C1CCC1)C(F)(F)F` [Example 352, N-(1-cyclobutyl-4-fluoro-6-(1-hydroxycyclobutyl)-1H-benzo[d]imidazol-2-yl)-4,4,4-trifluoro-3,3-dimethylbutanamide], the “Kv7.2/7.3 Activity: increase over baseline in current” value (from here on “Kv7.2/7.3 Activity: increase”) at Kv7.2/7.3 [2] is reported as “++ (3-3.9 (++))”. On to `CC(C)(O)c1ccc2nc(NC(=O)CC(C)(C)C3CC3)n(CC(F)(F)F)c2c1` [Example 406, 3-cyclopropyl-N-(6-(2-hydroxypropan-2-yl)-1-(2,2,2-trifluoroethyl)-1H-benzo[d]imidazol-2-yl)-3-methylbutanamide], for which the “Kv7.2/7.3 Activity: increase” value at Kv7.2/7.3 [2] is “+++ (>4 (+++) fold increase over baseline)”.

In the case of `CC(C)(C)CC(=O)Nc1nc2c(F)cc(Br)cc2n1C1CCC1` [Example 343, N-(6-bromo-1-cyclobutyl-4-fluoro-1H-benzo[d]imidazol-2-yl)-3,3-dimethylbutanamide], the “Kv7.2/7.3 Activity: increase” value on Kv7.2/7.3 [2] is “+++ (>4 (+++) fold increase over baseline)”. As for `CC(C)(C)CC(=O)Nc1nc2c(F)cc(C(O)(CF)CF)cc2n1C1CCC1` [Example 479, N-(1-cyclobutyl-6-(1,3-difluoro-2-hydroxypropan-2-yl)-4-fluoro-1H-benzo[d]imidazol-2-yl)-3,3-dimethylbutanamide], at Kv7.2/7.3 [2], the “Kv7.2/7.3 Activity: increase” value is on record as “++ (3-3.9 (++))”. Still for that read-out and setting: as for `COc1cccc2nc(NC(=O)CC(C)(O)c3ccccc3)n(C3CCC3)c12` (single isomer, unassigned) [Example 358, N-(1-cyclobutyl-7-methoxy-1H-benzo[d]imidazol-2-yl)-3-hydroxy-3-phenylbutanamide], the entry is “+ (1.2-2.9 (+))”; as for `CC(C)(C)n1c(NC(=O)CC2CC(F)(F)C2(F)F)nc2c(F)cc(C#N)cc21` (single isomer, unassigned) [Example 416, N-(1-(tert-butyl)-6-cyano-4-fluoro-1H-benzo[d]imidazol-2-yl)-2-(2,2,3,3-tetrafluorocyclobutyl)acetamide], “++ (3-3.9 (++))”. Take `CC(O)(CC(=O)Nc1nc2ccc(OC(F)F)c(F)c2n1C1(C)CCC1)c1ccccc1` (single isomer, unassigned) [Example 374, N-(6-(difluoromethoxy)-7-fluoro-1-(1-methylcyclobutyl)-1H-benzo[d]imidazol-2-yl)-3-hydroxy-3-phenylbutanamide]: the “Kv7.2/7.3 Activity: increase” value on Kv7.2/7.3 [2] is recorded as “++ (3-3.9 (++))”. Turning to `CC(O)(CC(=O)Nc1nc2cc(Cl)c(C#N)cc2n1C1CCC1)c1ccccc1` (single isomer, unassigned) [Example 347, N-(5-chloro-6-cyano-1-cyclobutyl-1H-benzo[d]imidazol-2-yl)-3-hydroxy-3-phenylbutanamide], the “Kv7.2/7.3 Activity: increase” value at Kv7.2/7.3 [2] is recorded as “+ (1.2-2.9 (+))”.

In the case of `CC(C)(C)CC(=O)Nc1nc2c(F)cc(C#N)c(F)c2n1C(C)(C)C` [Example 457, N-(1-(tert-butyl)-6-cyano-4,7-difluoro-1H-benzo[d]imidazol-2-yl)-3,3-dimethylbutanamide], the “Kv7.2/7.3 Activity: increase” value at Kv7.2/7.3 [2] is given as “++ (3-3.9 (++))”. As for `CC(C)(O)c1c(F)cc2nc(NC(=O)CC(C)(C)C(F)(F)F)n(C3CCC3)c2c1F` [Example 470, N-(1-cyclobutyl-5,7-difluoro-6-(2-hydroxypropan-2-yl)-1H-benzo[d]imidazol-2-yl)-4,4,4-trifluoro-3,3-dimethylbutanamide], on Kv7.2/7.3 [2], the “Kv7.2/7.3 Activity: increase” value is on record as “+ (1.2-2.9 (+))”. On the same count and under the same terms, as for `CC(C)(O)c1cc(F)c2nc(NC(=O)CC3CC(F)(F)C3(F)F)n(C3CCC3)c2c1` (single isomer, unassigned) [Example 466, N-(1-cyclobutyl-4-fluoro-6-(2-hydroxypropan-2-yl)-1H-benzo[d]imidazol-2-yl)-2-(2,2,3,3-tetrafluorocyclobutyl)acetamide], the entry is “++ (3-3.9 (++))”; as for `COc1cc(Br)cc2c1nc(NC(=O)CC(C)(C)C)n2C1(C)CCC1` [Example 392, N-(6-bromo-4-methoxy-1-(1-methylcyclobutyl)-1H-benzo[d]imidazol-2-yl)-3,3-dimethylbutanamide], “+++ (>4 (+++) fold increase over baseline)”; as for `CC1(n2c(NC(=O)CC(C)(C)C(F)(F)F)nc3ccc(C#N)cc32)CCC1` [Example 361, N-(6-cyano-1-(1-methylcyclobutyl)-1H-benzo[d]imidazol-2-yl)-4,4,4-trifluoro-3,3-dimethylbutanamide], “++ (3-3.9 (++))”. `CC(C)(C)CC(=O)Nc1nc2ccc(C3(O)CCC3)c(F)c2n1C1CCC1` [Example 451, N-(1-cyclobutyl-7-fluoro-6-(1-hydroxycyclobutyl)-1H-benzo[d]imidazol-2-yl)-3,3-dimethylbutanamide]: on Kv7.2/7.3 [2], the “Kv7.2/7.3 Activity: increase” value was “O”.

Consider `CN(C)c1ccc2nc(NC(=O)CC(C)(O)c3ccccc3)n(C3CCC3)c2c1F` (single isomer, unassigned) [Example 485, N-(1-cyclobutyl-6-(dimethylamino)-7-fluoro-1H-benzo[d]imidazol-2-yl)-3-hydroxy-3-phenylbutanamide], for which, on Kv7.2/7.3 [2], the “Kv7.2/7.3 Activity: increase” value was “+++ (>4 (+++) fold increase over baseline)”. For the compound `CC(C)(O)c1ccc2nc(NC(=O)CC3CC(F)(F)C3(F)F)n(C3CCC3)c2c1` (single isomer, unassigned) [Example 398, N-(1-cyclobutyl-6-(2-hydroxypropan-2-yl)-1H-benzo[d]imidazol-2-yl)-2-(2,2,3,3-tetrafluorocyclobutyl)acetamide], the “Kv7.2/7.3 Activity: increase” value on Kv7.2/7.3 [2] is given as “+ (1.2-2.9 (+))”. As for `CC(C)(CC(=O)Nc1nc2c(F)cc(OC(F)F)cc2n1C1(C)CCC1)C1CC1` [Example 338, 3-cyclopropyl-N-(6-(difluoromethoxy)-4-fluoro-1-(1-methylcyclobutyl)-1H-benzo[d]imidazol-2-yl)-3-methylbutanamide], the “Kv7.2/7.3 Activity: increase” value on Kv7.2/7.3 [2] is listed as “+++ (>4 (+++) fold increase over baseline)”. On the same count and under the same terms, as for `CC1(C)C[C@@H]1C(=O)Nc1nc2c(F)cc(C#N)cc2n1C(C)(C)C` [Example 372, (S)-N-(1-(tert-butyl)-6-cyano-4-fluoro-1H-benzo[d]imidazol-2-yl)-2,2-dimethylcyclopropane-1-carboxamide], the entry is “++ (3-3.9 (++))”; as for `CC(O)(CC(=O)Nc1nc2ccc(OC(F)F)cc2n1C(C)(C)C)c1ccccc1` (single isomer, unassigned) [Example 418, N-(1-(tert-butyl)-6-(difluoromethoxy)-1H-benzo[d]imidazol-2-yl)-3-hydroxy-3-phenylbutanamide], “++ (3-3.9 (++))”; as for `CC(C)(C)CC(=O)Nc1nc2c(F)cc(C3(O)CCC3)cc2n1C1CCC1` [Example 421, N-(1-cyclobutyl-4-fluoro-6-(1-hydroxycyclobutyl)-1H-benzo[d]imidazol-2-yl)-3,3-dimethylbutanamide], “+++ (>4 (+++) fold increase over baseline)”. Turning to `C[C@H](C(=O)Nc1nc2ccc(C(C)(C)O)cc2n1C1CC(F)(F)C1)C(C)(C)C` [Example 365, (S)-N-(1-(3,3-difluorocyclobutyl)-6-(2-hydroxypropan-2-yl)-1H-benzo[d]imidazol-2-yl)-2,3,3-trimethylbutanamide], the “Kv7.2/7.3 Activity: increase” value on Kv7.2/7.3 [2] is reported as “+ (1.2-2.9 (+))”.

On to `CC(C)(CC(=O)Nc1nc2c(F)cc(C#N)cc2n1C(C)(C)C)C1CC1` [Example 482, N-(1-(tert-butyl)-6-cyano-4-fluoro-1H-benzo[d]imidazol-2-yl)-3-cyclopropyl-3-methylbutanamide], for which the “Kv7.2/7.3 Activity: increase” value on Kv7.2/7.3 [2] is “+++ (>4 (+++) fold increase over baseline)”.
